Holding throughout (assay type): cell-based
The target in data set [1] is T1, LRRK2 (Homo sapiens, UniProt Q5S007).
T1 construct: wild-type full-length LRRK2 (pcDNA5-LRRK2, RRID: Addgene_229019)
The data set is described as follows: Western blot of Rab8a phosphorylation (pT72) in 293T cells transfected with wild-type LRRK2 and GFP-Rab8a. As for the experimental part: (§1) For all in cell kinase assays, after 48 hours, transfected cells were treated with either DMSO (control) or the indicated inhibitors for 4 hours at 37°C and 5% CO2. Following treatments, cells were washed three times with ice cold PBS. Cells were then lysed in ice cold radioimmunoprecipitation assay (RIPA) lysis buffer [50 mM tris (pH 8.0), 150 mM NaCl, 1% Triton X-100, 0.1% SDS, 0.5% sodium deoxycholate, and 1 mM DTT] in the presence of complete mini EASYpack protease inhibitor cocktail and the PhosSTOP EASYpack phosphatase inhibitor cocktail (Roche). Resuspended and lysed cells were clarified by centrifugation at 13,000g for 15 min at 4°C. […] The membrane was blocked in 5% milk in 1× Tris-buffered saline (TBS) [20 mM tris (pH 8.0) and 150 mM NaCl] for 1 hour shaking at room temperature. […] Membranes were then washed three times in 1× TBS-T before imaging on Li-COR Odyssey CLx controlled by Imaging Studio software (www.licorbio.com/image-studio, RRID:SCR_015795). […] The signal intensity of each band was assessed using the Analyze>Gels tool. The band intensity for phosphorylated LRRK2 was measured and compared to total LRRK2 levels (run under identical conditions on a separate gel). Band intensity for phosphorylated Rab7 or Rab8a was measured and compared against total GFP-Rab7 or GFP-Rab8a (using anti-GFP antibody) and LRRK1/LRRK2 levels as appropriate. Comparative statistical analysis of phosphorylation levels was analyzed using a one-way analysis of variance (ANOVA) and corrected using Tukey’s multiple comparisons test in GraphPad Prism 10 (www.graphpad.com/, RRID:SCR_002798).
A general note: In western blotting, separated proteins are transferred to a membrane and probed.

Data set [2] deals with T2, G2019S LRRK2 (Homo sapiens, UniProt Q5S007, G2019S).
T2 construct: The three constructs used in this study are indicated: full-length LRRK2, LRRK2^RCKW, and LRRK2^KW
T2 sequence (Q5S007 whole entry G2019S): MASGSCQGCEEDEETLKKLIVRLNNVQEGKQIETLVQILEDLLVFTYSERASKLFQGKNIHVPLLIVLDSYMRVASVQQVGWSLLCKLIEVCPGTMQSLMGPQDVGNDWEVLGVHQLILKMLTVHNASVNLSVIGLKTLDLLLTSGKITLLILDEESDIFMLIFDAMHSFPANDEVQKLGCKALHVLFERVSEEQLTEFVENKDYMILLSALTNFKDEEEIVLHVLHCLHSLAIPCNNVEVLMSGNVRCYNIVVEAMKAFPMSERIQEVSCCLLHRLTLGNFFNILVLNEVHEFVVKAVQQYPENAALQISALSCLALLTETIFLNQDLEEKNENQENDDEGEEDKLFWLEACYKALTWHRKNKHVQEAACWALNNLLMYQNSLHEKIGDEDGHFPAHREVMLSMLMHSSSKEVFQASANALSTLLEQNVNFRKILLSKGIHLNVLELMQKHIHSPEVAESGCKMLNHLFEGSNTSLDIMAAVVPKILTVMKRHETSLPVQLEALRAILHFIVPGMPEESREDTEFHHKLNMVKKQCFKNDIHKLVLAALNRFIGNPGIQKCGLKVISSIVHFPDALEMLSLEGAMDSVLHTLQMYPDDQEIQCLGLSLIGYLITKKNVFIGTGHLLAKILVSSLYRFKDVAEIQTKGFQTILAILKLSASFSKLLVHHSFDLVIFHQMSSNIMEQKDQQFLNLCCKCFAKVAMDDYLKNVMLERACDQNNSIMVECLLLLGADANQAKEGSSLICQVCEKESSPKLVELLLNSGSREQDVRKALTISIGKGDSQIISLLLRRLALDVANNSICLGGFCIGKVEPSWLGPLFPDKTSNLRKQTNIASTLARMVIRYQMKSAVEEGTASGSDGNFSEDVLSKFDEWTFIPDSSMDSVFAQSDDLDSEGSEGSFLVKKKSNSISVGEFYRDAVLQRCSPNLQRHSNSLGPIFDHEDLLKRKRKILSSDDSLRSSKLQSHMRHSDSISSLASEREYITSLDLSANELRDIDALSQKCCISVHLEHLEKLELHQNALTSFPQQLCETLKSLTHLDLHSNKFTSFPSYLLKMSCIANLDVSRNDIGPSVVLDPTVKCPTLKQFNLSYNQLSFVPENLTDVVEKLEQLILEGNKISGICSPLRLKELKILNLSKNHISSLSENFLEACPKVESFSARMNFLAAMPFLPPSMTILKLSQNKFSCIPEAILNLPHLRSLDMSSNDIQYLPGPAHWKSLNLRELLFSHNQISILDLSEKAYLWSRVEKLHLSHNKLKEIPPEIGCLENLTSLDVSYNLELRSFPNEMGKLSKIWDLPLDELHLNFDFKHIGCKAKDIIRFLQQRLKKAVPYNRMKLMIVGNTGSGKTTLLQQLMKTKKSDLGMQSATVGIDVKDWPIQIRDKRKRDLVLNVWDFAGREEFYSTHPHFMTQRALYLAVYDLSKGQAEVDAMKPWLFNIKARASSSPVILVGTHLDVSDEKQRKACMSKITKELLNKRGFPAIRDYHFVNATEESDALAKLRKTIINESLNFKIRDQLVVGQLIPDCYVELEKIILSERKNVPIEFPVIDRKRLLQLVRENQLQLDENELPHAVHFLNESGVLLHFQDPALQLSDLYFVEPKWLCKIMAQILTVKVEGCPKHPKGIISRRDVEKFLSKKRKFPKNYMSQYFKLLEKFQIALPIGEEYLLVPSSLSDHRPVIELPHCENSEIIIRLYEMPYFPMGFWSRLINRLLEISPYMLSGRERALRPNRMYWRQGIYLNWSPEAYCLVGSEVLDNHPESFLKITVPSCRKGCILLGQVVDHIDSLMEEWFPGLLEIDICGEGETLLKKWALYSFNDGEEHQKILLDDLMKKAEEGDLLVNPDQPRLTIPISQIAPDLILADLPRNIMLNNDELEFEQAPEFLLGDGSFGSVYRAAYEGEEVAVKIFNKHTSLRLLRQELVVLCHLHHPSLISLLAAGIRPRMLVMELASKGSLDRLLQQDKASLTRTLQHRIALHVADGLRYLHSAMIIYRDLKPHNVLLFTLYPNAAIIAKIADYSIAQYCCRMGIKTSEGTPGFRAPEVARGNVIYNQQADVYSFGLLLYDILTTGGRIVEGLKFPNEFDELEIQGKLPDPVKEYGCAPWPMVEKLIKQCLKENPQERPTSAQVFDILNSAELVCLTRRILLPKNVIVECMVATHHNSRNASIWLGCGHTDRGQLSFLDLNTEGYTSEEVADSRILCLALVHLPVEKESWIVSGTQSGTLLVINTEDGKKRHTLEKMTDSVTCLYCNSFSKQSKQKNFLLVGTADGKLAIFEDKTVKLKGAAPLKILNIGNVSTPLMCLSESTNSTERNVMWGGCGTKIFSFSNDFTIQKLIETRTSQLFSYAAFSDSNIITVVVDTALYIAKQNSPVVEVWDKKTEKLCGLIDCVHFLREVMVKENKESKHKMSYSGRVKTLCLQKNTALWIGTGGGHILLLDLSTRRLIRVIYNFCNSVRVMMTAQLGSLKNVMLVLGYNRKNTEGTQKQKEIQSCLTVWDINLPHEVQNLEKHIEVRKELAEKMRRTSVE
The data set is described as follows: Western blot of Rab8a phosphorylation in 293T cells transfected with G2019S LRRK2 and GFP-Rab8a. The procedure: as §1

For data set [3], the target named is LRRK1 (Homo sapiens, UniProt Q38SD2). Put plainly: Western blot of Rab7 phosphorylation (pS72) in 293T cells transfected with LRRK1 and GFP-Rab7. The note with it: for pRab7/Rab7/LRRK1 normalized to DMSO, Mean / pRab7/Rab7/LRRK1 normalized to DMSO: 4 h; for pRab7/Rab7/LRRK1 normalized to DMSO, Mean: 3 replicates; for pRab7/Rab7/LRRK1 normalized to DMSO: individual Western blots. As for the experimental part:
For all in cell kinase assays, after 48 hours, transfected cells were treated with either DMSO (control) or the indicated inhibitors for 4 hours at 37°C and 5% CO2. Following treatments, cells were washed three times with ice cold PBS. Cells were then lysed in ice cold radioimmunoprecipitation assay (RIPA) lysis buffer [50 mM tris (pH 8.0), 150 mM NaCl, 1% Triton X-100, 0.1% SDS, 0.5% sodium deoxycholate, and 1 mM DTT] in the presence of complete mini EASYpack protease inhibitor cocktail and the PhosSTOP EASYpack phosphatase inhibitor cocktail (Roche). Resuspended and lysed cells were clarified by centrifugation at 13,000g for 15 min at 4°C. NuPAGE LDS Sample Buffer (1×) and NuPAGE Sample Reducing Agent (1×; Invitrogen) were added to the clarified supernatants, and the samples were boiled at 95°C for 5 min and spun down at 13,000g for 10 min. For Western blotting, 15 μl of sample was loaded into a NuPAGE 4 to 12% gradient bis-tris gel (Invitrogen) and run at 120 V for 75 min before transfer to polyvinylidene difluoride transfer membrane (0.45-μm pore size, Millipore) for 240 min at 80 V at 4°C. The membrane was blocked in 5% milk in 1× Tris-buffered saline (TBS) [20 mM tris (pH 8.0) and 150 mM NaCl] for 1 hour shaking at room temperature. Primary antibodies [monoclonal rabbit anti-LRRK2 (Abcam, ab133474; RRID: AB_2713963), polyclonal rabbit anti-LRRK1 (Abcam, ab228666), monoclonal rabbit anti-LRRK2 phospho-S935 (Abcam, ab133450; RRID: AB_2732035), monoclonal rabbit anti-Rab8a phospho-T72 (Abcam, ab230260; RRID: AB_2814988), monoclonal rabbit anti-Rab7 phospho-S72 (Abcam, ab302494; RRID: AB_2933985), monoclonal rabbit anti–glyceraldehyde-3-phosphate dehydrogenase (GAPDH; Cell Signalling Technology, 2118; RRID: AB_561053), and monoclonal mouse anti-GFP (Santa Cruz Biotechnology, sc-9996; RRID: AB_627695)] were diluted in 5% milk in TBS and incubated with membrane for 16 hours at 4°C. Following incubation, membranes were washed three times with 1× TBS-T [20 mM tris (pH 8.0), 150 mM NaCl, and 0.1% Tween 20] before incubation with IRDye 680RD goat anti-rabbit IgG (LI-COR, 926-68071; RRID: AB_10956166) and IRDye 800CW goat anti-mouse IgG (LI-COR, 926-32210; RRID: AB_621842) secondary antibodies in 5% milk in 1× TBS for 1 hour at room temperature. Membranes were then washed three times in 1× TBS-T before imaging on Li-COR Odyssey CLx controlled by Imaging Studio software (www.licorbio.com/image-studio, RRID:SCR_015795). Image processing and quantification were performed in ImageJ version 2.14.0 (National Institutes of Health; https://imagej.net/, RRID:SCR_003070). The signal intensity of each band was assessed using the Analyze>Gels tool. The band intensity for phosphorylated LRRK2 was measured and compared to total LRRK2 levels (run under identical conditions on a separate gel). Band intensity for phosphorylated Rab7 or Rab8a was measured and compared against total GFP-Rab7 or GFP-Rab8a (using anti-GFP antibody) and LRRK1/LRRK2 levels as appropriate. Comparative statistical analysis of phosphorylation levels was analyzed using a one-way analysis of variance (ANOVA) and corrected using Tukey’s multiple comparisons test in GraphPad Prism 10 (www.graphpad.com/, RRID:SCR_002798). (For current step-by-step protocol for LRRK transfection and Western blotting, see dx.doi.org/10.17504/protocols.io.kxygx9bozg8j/v1.)

“And” between values parts separate entries of the source, which are not always exact repeats. Identical values can stand only once. “Also recorded” adds a separate entry of the source.

Sequence of LRRK1 (Q38SD2 whole entry): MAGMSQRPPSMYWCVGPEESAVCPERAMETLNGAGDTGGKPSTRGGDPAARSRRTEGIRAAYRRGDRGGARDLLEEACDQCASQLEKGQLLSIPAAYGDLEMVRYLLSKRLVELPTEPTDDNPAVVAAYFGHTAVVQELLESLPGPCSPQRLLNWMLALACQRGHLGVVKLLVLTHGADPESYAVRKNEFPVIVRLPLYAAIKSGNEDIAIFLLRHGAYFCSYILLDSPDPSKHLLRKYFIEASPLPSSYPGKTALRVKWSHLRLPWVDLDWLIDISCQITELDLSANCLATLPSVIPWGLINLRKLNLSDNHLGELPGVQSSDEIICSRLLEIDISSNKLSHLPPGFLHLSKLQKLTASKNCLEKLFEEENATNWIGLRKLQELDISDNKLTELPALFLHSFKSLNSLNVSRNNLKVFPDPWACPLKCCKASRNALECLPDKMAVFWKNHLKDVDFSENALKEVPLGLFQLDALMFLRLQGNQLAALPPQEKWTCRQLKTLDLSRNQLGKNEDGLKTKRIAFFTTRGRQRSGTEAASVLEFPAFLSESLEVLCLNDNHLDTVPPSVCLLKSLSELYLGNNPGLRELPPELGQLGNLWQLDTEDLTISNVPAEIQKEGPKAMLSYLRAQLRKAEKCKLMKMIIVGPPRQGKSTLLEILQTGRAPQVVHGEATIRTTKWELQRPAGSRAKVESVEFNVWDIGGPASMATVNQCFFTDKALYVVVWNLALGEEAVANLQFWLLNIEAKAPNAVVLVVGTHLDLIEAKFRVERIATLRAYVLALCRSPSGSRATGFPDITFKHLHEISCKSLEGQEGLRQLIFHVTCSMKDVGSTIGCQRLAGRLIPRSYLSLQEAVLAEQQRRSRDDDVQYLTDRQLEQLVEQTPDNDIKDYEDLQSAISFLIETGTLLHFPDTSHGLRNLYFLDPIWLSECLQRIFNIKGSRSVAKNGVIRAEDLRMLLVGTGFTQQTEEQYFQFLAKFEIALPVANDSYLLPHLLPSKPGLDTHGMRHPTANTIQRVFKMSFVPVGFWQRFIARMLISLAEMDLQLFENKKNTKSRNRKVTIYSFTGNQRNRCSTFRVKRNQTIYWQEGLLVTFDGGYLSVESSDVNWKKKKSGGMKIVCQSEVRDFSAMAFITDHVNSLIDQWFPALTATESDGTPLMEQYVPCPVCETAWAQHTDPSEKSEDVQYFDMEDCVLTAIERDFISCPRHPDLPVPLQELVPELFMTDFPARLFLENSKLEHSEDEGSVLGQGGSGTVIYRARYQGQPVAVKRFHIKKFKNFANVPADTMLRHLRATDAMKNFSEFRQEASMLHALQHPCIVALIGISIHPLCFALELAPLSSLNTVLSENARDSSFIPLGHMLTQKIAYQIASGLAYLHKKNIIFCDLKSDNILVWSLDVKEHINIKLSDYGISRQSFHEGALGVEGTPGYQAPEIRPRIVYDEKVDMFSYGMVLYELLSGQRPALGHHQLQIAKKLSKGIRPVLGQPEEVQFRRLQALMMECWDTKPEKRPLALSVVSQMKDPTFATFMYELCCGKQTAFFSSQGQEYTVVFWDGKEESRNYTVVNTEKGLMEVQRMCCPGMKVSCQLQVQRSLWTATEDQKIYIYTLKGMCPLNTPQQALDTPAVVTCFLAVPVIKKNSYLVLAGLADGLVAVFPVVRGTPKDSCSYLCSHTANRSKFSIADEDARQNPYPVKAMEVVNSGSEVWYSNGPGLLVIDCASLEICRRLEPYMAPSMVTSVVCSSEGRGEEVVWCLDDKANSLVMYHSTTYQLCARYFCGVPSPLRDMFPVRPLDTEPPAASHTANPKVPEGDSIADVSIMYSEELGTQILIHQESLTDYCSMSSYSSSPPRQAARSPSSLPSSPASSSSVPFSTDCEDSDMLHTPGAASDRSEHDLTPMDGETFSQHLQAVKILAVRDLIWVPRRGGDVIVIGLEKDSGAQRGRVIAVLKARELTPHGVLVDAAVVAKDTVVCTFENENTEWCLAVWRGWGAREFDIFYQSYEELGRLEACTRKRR
T1 sequence (Q5S007 whole entry): as the sequence (Q5S007 whole entry G2019S) above, with S2019G counted along it

In the case of `CCSc1nc(NC)c2c(-c3cccc(NC(=O)Nc4cc(C(C)(C)C)nn4-c4ccc(C)cc4)c3)c[nH]c2n1` [Compound 32], the “pRab8/Rab8/LRRK2 normalized to DMSO, Mean” value in data set [1] (250 nM, 4 h, 3 replicates) turned out to be 1.109; in data set [1] (500 nM, 4 h, 3 replicates), 0.9957; in data set [1] (1 μM, 4 h, 3 replicates), 0.8556; in data set [1] (5 μM, 4 h, 3 replicates), 0.5047; in data set [1] (10 μM, 4 h, 3 replicates), 0.408; in data set [1] (GFP-11 tagged WT LRRK2, 5 μM, 4 replicates), 0.2782. Besides, the “pRab8/Rab8/LRRK2 normalized to DMSO, Mean” value in data set [2] (GFP-11 tagged G2019S LRRK2, 5 μM, 4 replicates) turned out to be 0.8793. Further, the “pRab8/Rab8/LRRK2 normalized to DMSO” value in data set [1] (250 nM, 4 h, individual Western blots, listed as 341) is 1.128 and 0.9817 and 1.217; in data set [1] (500 nM, 4 h, individual Western blots, listed as 341) it was 1.05 and 0.7587 and 1.178; in data set [1] (1 μM, 4 h, individual Western blots, listed as 341), 0.8182 and 0.7772 and 0.9713; in data set [1] (5 μM, 4 h, individual Western blots, listed as 341), 0.5692 and 0.3629 and 0.5821; in data set [1] (10 μM, 4 h, individual Western blots, listed as 341) it was 0.4385 and 0.2564 and 0.5293; in data set [1] (GFP-11 tagged WT LRRK2, 5 μM, individual blots, normalized to WT DMSO, listed as RN341) it was 0.1752 and 0.6963 and 0.1155 and 0.1257. Moreover, in data set [2] (GFP-11 tagged G2019S LRRK2, 5 μM, individual blots, normalized to WT DMSO (G2019S DMSO mean 2.25334), listed as RN341), the “pRab8/Rab8/LRRK2 normalized to DMSO” value is 0.923 and 1.39 and 0.7952 and 0.4091. Also, in data set [1] (293T cells, any of the concentrations used), the toxicity entry is listed as “Toxicity did not appear to be an issue”. Moreover, the “effect on phosphorylation of Rab8a in cells” value in data set [1] (293T cells, increasing concentrations) is reported as “reduced phosphorylation of Rab8a in a dose-dependent manner”. In data set [2] (293T cells), the “inhibition of Rab8a phosphorylation by wild-type and G2019S LRRK2” value was “inhibited phosphorylation of Rab8a by both the wild-type and mutant kinase”. The “pRab7/Rab7/LRRK1 normalized to DMSO, Mean” value stood at 0.1265 in data set [3] (250 nM), 0.07673 in data set [3] (500 nM), 0.0594 in data set [3] (1 μM) and 0.03197 in data set [3] (5 μM). In addition, the “pRab7/Rab7/LRRK1 normalized to DMSO” value in data set [3] (250 nM, listed as RN341) is 0.09263 and 0.098 and 0.1889; in data set [3] (500 nM, listed as RN341), 0.0375 and 0.09153 and 0.1011; in data set [3] (1 µM, listed as RN341), 0.03839 and 0.04963 and 0.09017; in data set [3] (5 µM, listed as RN341) it was 0.0003413 and 0.05428 and 0.04127. The “inhibition of LRRK1 kinase activity in cells” value in data set [3] (293T cells, Rab7 phosphorylation, listed as RN341) was “strong inhibitory effect; also recorded: potently inhibited LRRK1 in cells”.

For `Cc1ccc(C(=O)Nc2ccc(CN3CCN(C)CC3)c(C(F)(F)F)c2)cc1C#Cc1cnc2cccnn12` [Ponatinib, reference compound], the “pRab8/Rab8/LRRK2 normalized to DMSO, Mean” value in data set [1] (5 μM, 4 h, 3 replicates) amounted to 0.2682. For the same compound, the “pRab8/Rab8/LRRK2 normalized to DMSO” value in data set [1] (5 μM, 4 h, individual Western blots) was 0.2608 and 0.2643 and 0.2795.

The record behind these values is publication PMC12136037, “Type II kinase inhibitors that target Parkinson’s disease–associated LRRK2” (Science Advances, 2025).
